Data reported in patent US8846947B2, “Benzimidazoles and related analogs as sirtuin modulators” (GlaxoSmithKline LLC, priority 2008, dated 2014).

Target: T1, SIRT1 (Homo sapiens, UniProt Q96EB6)
T1 sequence (Q96EB6 1-747): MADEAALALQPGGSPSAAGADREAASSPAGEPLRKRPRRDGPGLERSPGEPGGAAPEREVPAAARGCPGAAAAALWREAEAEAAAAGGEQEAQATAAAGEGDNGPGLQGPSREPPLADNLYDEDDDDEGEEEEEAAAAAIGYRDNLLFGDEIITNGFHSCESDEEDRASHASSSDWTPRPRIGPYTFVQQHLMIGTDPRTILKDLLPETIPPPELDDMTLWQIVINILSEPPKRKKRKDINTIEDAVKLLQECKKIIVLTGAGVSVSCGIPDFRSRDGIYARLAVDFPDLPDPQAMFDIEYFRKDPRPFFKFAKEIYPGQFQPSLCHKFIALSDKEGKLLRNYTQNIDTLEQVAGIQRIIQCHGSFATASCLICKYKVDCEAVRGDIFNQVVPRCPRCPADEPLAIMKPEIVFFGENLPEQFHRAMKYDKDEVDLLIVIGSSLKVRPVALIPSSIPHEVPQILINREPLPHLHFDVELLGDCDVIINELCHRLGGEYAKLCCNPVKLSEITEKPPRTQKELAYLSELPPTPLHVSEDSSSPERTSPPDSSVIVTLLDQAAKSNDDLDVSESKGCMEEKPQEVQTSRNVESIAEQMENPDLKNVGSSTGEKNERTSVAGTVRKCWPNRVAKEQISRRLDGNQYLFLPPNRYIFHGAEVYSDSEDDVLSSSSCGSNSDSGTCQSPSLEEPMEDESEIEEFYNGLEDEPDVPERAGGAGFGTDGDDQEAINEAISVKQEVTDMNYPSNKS
Assay: Mass spectrometry based SIRT1 deacetylase activation assay (acetylated p53-derived peptide substrate)
Assay type: biochemical
Details: 0.5 μM peptide substrate, 120 μM βNAD+, 10 nM SIRT1, 25 minutes at 25° C.

Structure (SMILES) | EC1.5 | Fold Act. (percent maximum fold activation)
O=C(Nc1nccs1)c1cc(F)cc2nc(-c3ccc(F)cc3C(F)F)[nH]c12 [Compound 824] | A (EC1.5<1.0 uM) | A (Fold activation >200%)
Cc1cnc(NC(=O)c2cc(F)cc3nc(-c4ccc(F)cc4C(F)F)[nH]c23)s1 [Compound 825] | A (EC1.5<1.0 uM) | A (Fold activation >200%)
O=C(Nc1ccccn1)c1cc(F)cc2nc(-c3ccc(F)cc3C(F)F)[nH]c12 [Compound 826] | A (EC1.5<1.0 uM) | A (Fold activation >200%)
O=C(Nc1nccs1)c1cccc2[nH]c(-c3ccc(CN4CCCC4)cc3C(F)(F)F)nc12 [Compound 828, 2-(4-(pyrrolidin-1-ylmethyl)-2-(trifluoromethyl)phenyl)-N-(thiazol-2-yl)-1H-benzo[d]imidazole-4-carboxamide] | A (EC1.5<1.0 uM) | A (Fold activation >200%)
O=C(Nc1cccnc1)c1cc(F)cc2[nH]c(-c3ccc(OC[C@H](O)CO)cc3C(F)F)nc12 [Compound 829] | A (EC1.5<1.0 uM) | A (Fold activation >200%)
O=C(Nc1ccccn1)c1cc(F)cc2[nH]c(-c3ccc(OC[C@H](O)CO)cc3C(F)F)nc12 [Compound 830] | A (EC1.5<1.0 uM) | A (Fold activation >200%)
O=C(Nc1nccs1)c1cc(F)cc2[nH]c(-c3ccc(OC[C@@H](O)CO)cc3C(F)F)nc12 [Compound 831] | A (EC1.5<1.0 uM) | A (Fold activation >200%)
O=C(Nc1nccs1)c1cc(F)cc2nc(-c3ccccc3C(F)F)[nH]c12 [Compound 832] | A (EC1.5<1.0 uM) | A (Fold activation >200%)
Cc1cnc(NC(=O)c2cc(F)cc3nc(-c4ccccc4C(F)F)[nH]c23)s1 [Compound 833] | A (EC1.5<1.0 uM) | A (Fold activation >200%)
O=C(Nc1ccccn1)c1cc(F)cc2nc(-c3ccccc3C(F)F)[nH]c12 [Compound 834] | A (EC1.5<1.0 uM) | A (Fold activation >200%)
O=C(Nc1nccs1)c1cc(F)cc2nc(-c3cc(F)ccc3C(F)F)[nH]c12 [Compound 835] | A (EC1.5<1.0 uM) | A (Fold activation >200%)
Cc1cnc(NC(=O)c2cc(F)cc3nc(-c4cc(F)ccc4C(F)F)[nH]c23)s1 [Compound 836] | A (EC1.5<1.0 uM) | A (Fold activation >200%)
O=C(Nc1ccccn1)c1cc(F)cc2nc(-c3cc(F)ccc3C(F)F)[nH]c12 [Compound 837] | A (EC1.5<1.0 uM) | A (Fold activation >200%)
O=C(Nc1ccccn1)c1cccc2[nH]c(-c3ccc(CN4CCCC4)cc3C(F)(F)F)nc12 [Compound 838, N-(pyridin-2-yl)-2-(4-(pyrrolidin-1-ylmethyl)-2-(trifluoromethyl)phenyl)-1H-benzo[d]imidazole-4-carboxamide] | A (EC1.5<1.0 uM) | A (Fold activation >200%)
O=C(Nc1ccccn1)c1cc(F)cc2[nH]c(-c3ccc(OC[C@@H](O)CO)cc3C(F)F)nc12 [Compound 840] | A (EC1.5<1.0 uM) | A (Fold activation >200%)
O=C(Nc1cccnc1)c1cc(F)cc2[nH]c(-c3ccc(OC[C@@H](O)CO)cc3C(F)F)nc12 [Compound 841] | A (EC1.5<1.0 uM) | A (Fold activation >200%)
Cc1ncccc1-c1nc2c(C(=O)Nc3nc(CN4CCOCC4)cs3)cccc2[nH]1 [Compound 842] | A (EC1.5<1.0 uM) | A (Fold activation >200%)
Cc1ccc(-c2nc3c(C(=O)Nc4nc(CN5CCOCC5)cs4)cccc3[nH]2)cn1 [Compound 843] | A (EC1.5<1.0 uM) | A (Fold activation >200%)

Structure (SMILES) | EC1.5 | Fold Act. (percent maximum fold activation)
Cc1cc(-c2nc3c(C(=O)Nc4nc(CN5CCOCC5)cs4)cccc3[nH]2)ccn1 [Compound 844] | A (EC1.5<1.0 uM) | A (Fold activation >200%)
O=C(Nc1nc(CN2CCOCC2)cs1)c1cccc2[nH]c(-c3ccccc3C(F)F)nc12 [Compound 845] | A (EC1.5<1.0 uM) | A (Fold activation >200%)
O=C(Nc1nc(CN2CCOCC2)cs1)c1cccc2[nH]c(-c3ccc(F)cc3C(F)F)nc12 [Compound 846] | A (EC1.5<1.0 uM) | A (Fold activation >200%)
Cc1nc(C)c(-c2nc3c(C(=O)Nc4cccc(CN5CCOCC5)n4)cccc3[nH]2)s1 [Compound 847] | A (EC1.5<1.0 uM) | A (Fold activation >200%)
Cc1nc(C)c(-c2nc3c(C(=O)Nc4nc(CN5CCOCC5)cs4)cccc3[nH]2)s1 [Compound 848] | A (EC1.5<1.0 uM) | A (Fold activation >200%)
O=C(Nc1nc(CN2CCOCC2)cs1)c1cccc2[nH]c(-c3ccc(Cl)cc3C(F)F)nc12 [Compound 849] | A (EC1.5<1.0 uM) | A (Fold activation >200%)
O=C(Nc1cccc(CN2CCOCC2)n1)c1cccc2[nH]c(-c3cccnc3)nc12 [Compound 850] | A (EC1.5<1.0 uM) | A (Fold activation >200%)
O=C(Nc1cccc(CN2CCOCC2)n1)c1cccc2[nH]c(-c3cccc(F)c3)nc12 [Compound 851] | A (EC1.5<1.0 uM) | A (Fold activation >200%)
O=C(Nc1cccc(CN2CCOCC2)n1)c1cccc2[nH]c(-c3cc(F)cc(F)c3)nc12 [Compound 852] | A (EC1.5<1.0 uM) | A (Fold activation >200%)
O=C(Nc1cccc(CN2CCOCC2)n1)c1cccc2[nH]c(-c3cccc(Cl)c3)nc12 [Compound 853] | A (EC1.5<1.0 uM) | A (Fold activation >200%)
O=C(Nc1cccc(CN2CCOCC2)n1)c1cccc2[nH]c(-c3ccccc3F)nc12 [Compound 854] | A (EC1.5<1.0 uM) | A (Fold activation >200%)
O=C(Nc1cccc(CN2CCOCC2)n1)c1cccc2[nH]c(-c3cc(F)ccc3F)nc12 [Compound 855] | A (EC1.5<1.0 uM) | A (Fold activation >200%)
O=C(Nc1cccc(N2CCOCC2)n1)c1cccc2[nH]c(-c3ccc(Cl)cc3C(F)(F)F)nc12 [Compound 868, 2-(4-chloro-2-(trifluoromethyl)phenyl)-N-(6-morpholinopyridin-2-yl)-1H-benzo[d]imidazole-4-carboxamide] | A (EC1.5<1.0 uM) | A (Fold activation >200%)
O=C(Nc1ccc(CN2CCCC2)cc1)c1cccc2[nH]c(-c3ccc(CN4CCCC4)cc3C(F)(F)F)nc12 [Compound 869, 2-(4-(pyrrolidin-1-ylmethyl)-2-(trifluoromethyl)phenyl)-N-(4-(pyrrolidin-1-ylmethyl)phenyl)-1H-benzo[d]imidazole-4-carboxamide] | A (EC1.5<1.0 uM) | A (Fold activation >200%)
Cc1ccc(NC(=O)c2cccc3[nH]c(-c4ccc(CN5CCCC5)cc4C(F)(F)F)nc23)cc1 [Compound 870, 2-(4-(pyrrolidin-1-ylmethyl)-2-(trifluoromethyl)phenyl)-N-p-tolyl-1H-benzo[d]imidazole-4-carboxamide] | A (EC1.5<1.0 uM) | A (Fold activation >200%)
O=C(Nc1nccs1)c1cccc2[nH]c(-c3cc(CN4CCCC4)ccc3C(F)(F)F)nc12 [Compound 871, 2-(5-(pyrrolidin-1-ylmethyl)-2-(trifluoromethyl)phenyl)-N-(thiazol-2-yl)-1H-benzo[d]imidazole-4-carboxamide] | B (EC1.5 1-25 uM) | A (Fold activation >200%)
O=C(Nc1ccccn1)c1cccc2[nH]c(-c3cc(CN4CCCC4)ccc3C(F)(F)F)nc12 [Compound 872, N-(pyridin-2-yl)-2-(5-(pyrrolidin-1-ylmethyl)-2-(trifluoromethyl)phenyl)-1H-benzo[d]imidazole-4-carboxamide] | A (EC1.5<1.0 uM) | A (Fold activation >200%)
O=C(Nc1ccc(CN2CCCC2)cc1)c1cccc2[nH]c(-c3cc(CN4CCCC4)ccc3C(F)(F)F)nc12 [Compound 873, 2-(5-(pyrrolidin-1-ylmethyl)-2-(trifluoromethyl)phenyl)-N-(4-(pyrrolidin-1-ylmethyl)phenyl)-1H-benzo[d]imidazole-4-carboxamide] | A (EC1.5<1.0 uM) | A (Fold activation >200%)
